Assay results as given in the supplement of paper PMC13380429.

Legend:
Conditions in all cases: 72 h
Caco-2 [1] = assay: cell viability relative to DMSO; higher = less toxic
Calu-3 [2] = assay: as above
HepG2 [3] = assay: as above
U2OS [4] = assay: as above
Vero E6 [5] = assay: as above
Calu-3 [6] = assay: relative viability EC50 (midpoint between 100% and the lowest measured viability); higher = less toxic
HepG2 [7] = assay: as above
Vero E6 [8] = assay: as above
Caco-2 [9] = assay: drug sensitivity score (DSS) for viability; higher = more toxic; extreme values may be limits of the assay
Calu-3 [10] = assay: as above
HepG2 [11] = assay: as above
U2OS [12] = assay: as above
Vero E6 [13] = assay: as above
U2OS [14] = assay: relative viability EC50 (midpoint between 100% and the lowest measured viability); higher = less toxic

SMILES	cell viability (Caco-2 [1]; 1 nM) [%]	cell viability (Caco-2 [1]; 10 nM) [%]	cell viability (Caco-2 [1]; 100 nM) [%]	cell viability (Caco-2 [1]; 1000 nM) [%]	cell viability (Caco-2 [1]; 10000 nM) [%]	cell viability (Calu-3 [2]; 1 nM) [%]	cell viability (Calu-3 [2]; 10 nM) [%]	cell viability (Calu-3 [2]; 100 nM) [%]	cell viability (Calu-3 [2]; 1000 nM) [%]	cell viability (Calu-3 [2]; 10000 nM) [%]	cell viability (HepG2 [3]; 1 nM) [%]	cell viability (HepG2 [3]; 10 nM) [%]	cell viability (HepG2 [3]; 100 nM) [%]	cell viability (HepG2 [3]; 1000 nM) [%]	cell viability (HepG2 [3]; 10000 nM) [%]	cell viability (U2OS [4]; 1 nM) [%]	cell viability (U2OS [4]; 10 nM) [%]	cell viability (U2OS [4]; 100 nM) [%]	cell viability (U2OS [4]; 1000 nM) [%]	cell viability (U2OS [4]; 10000 nM) [%]	cell viability (Vero E6 [5]; 1 nM) [%]	cell viability (Vero E6 [5]; 10 nM) [%]	cell viability (Vero E6 [5]; 100 nM) [%]	cell viability (Vero E6 [5]; 1000 nM) [%]	cell viability (Vero E6 [5]; 10000 nM) [%]	relative viability EC50 (Calu-3 [6]) [nM]	relative viability EC50 (HepG2 [7]) [nM]	relative viability EC50 (Vero E6 [8]) [nM]	drug sensitivity score (Caco-2 [9])	drug sensitivity score (Calu-3 [10])	drug sensitivity score (HepG2 [11])	drug sensitivity score (U2OS [12])	drug sensitivity score (Vero E6 [13])	relative viability EC50 (U2OS [14]) [nM]
CCc1c2c(nc3ccc(OC(=O)N4CCC(N5CCCCC5)CC4)cc13)-c1cc3c(c(=O)n1C2)COC(=O)[C@]3(O)CC [irinotecan]	95.1	91.6	95.5	90.9	61.5	103	94.7	93.7	69.3	47.5	95.4	99.2	76.9	37.5	21.7	104	97.4	98.1	88.7	59.1	94.3	97.4	95.6	95.8	75.2	679	244	> 10000	3.3	6.5	14.4	3.8	1.6	
CO[C@@H]1[C@@H](O[C@@H]2O[C@H](C)[C@@H](O[C@H]3C[C@@](C)(O)[C@@H](OC(=O)CC(C)C)[C@H](C)O3)[C@H](N(C)C)[C@H]2O)[C@@H](CC=O)C[C@@H](C)[C@@H](O)/C=C/C=C/C[C@@H](C)OC(=O)C[C@H]1OC(C)=O [josamycin]	101	94.2	100	107	68	103	102	106	98.2	106	107	105	117	95	74.4	101	89.3	97.5	101	100	95	98.6	105	92.1	99.1	> 10000		> 10000	1.1	0	1.7	0	0	> 10000
CC(=O)O[C@]1(C(C)=O)CC[C@H]2[C@@H]3C=C(C)C4=CC(=O)CC[C@]4(C)[C@H]3CC[C@@]21C [megestrol-acetate]																														0	0	0	0	
COC(=O)c1ccc(O)cc1 [methylparaben]																														0	0	0	0	
CO[C@@H]1[C@H](N(C)C(=O)c2ccccc2)C[C@H]2O[C@]1(C)n1c3ccccc3c3c4c(c5c6ccccc6n2c5c31)C(=O)NC4 [midostaurin]	108	111	97.4	74.9	63.3	89.5	88.5	102	67.3	43.3	97	94	93.9	53.9	44.3	102	99.2	103	59.6	29	110	101	94.3	63.9	36	885	369	793	4.7	7.1	9.3	8.8	7.8	897
